Data from patent US9839690B2, “Singlet oxygen-labile linkers and methods of production and use thereof” (The Board of Regents of the University of Oklahoma, priority 2012, dated 2017).

Tests used:
[1] = Photooxygenation kinetics (DPBF fluorescence, Rose Bengal, Stern-Volmer analysis); format: physicochemical; conditions: acetone, 15° C., 540±10 nm
Description: Fluorescence emission was used to monitor the disappearance of 1,3-diphenylisobenzofuran (DPBF) which was recorded on a LS 50 B luminescence spectrometer (Perkin Elmer, USA). DPBF (5×10^−2 M) and Rose Bengal (0.5×10^−5 M) stock solution in dry acetone was prepared. In addition, varying known concentrations of 2,3-dimethylbutene, (E)-N-phenyl-3-(piperidin-1-yl)acrylamide (a model compound with aminoacrylate linker) and Combretastatin A-4 (CA-4) were freshly prepared. Using a tungsten-halogen light source filtered at 540±10 nm (Lumacare), the appropriate solution of DPBF-Rose Bengal with or without a substrate placed in a fluorescence cuvette and held in a thermostated cell at 15° C. with stirring was irradiated with 0.1 mW/cm^2 light intensity at 30 sec interval. The fluorescence intensity of DPBF at 455 nm as a function of time provided the rate of photooxygenation of DPBF. […] As such, the reaction kinetics could be determined in light of the following analysis.
Using the above kinetic analysis and equation (5), the second order rate constant (k) of the aminoacrylate linker was experimentally determined to be 2.5×10^7 M^−1s^−1, wherein k=kr+kq
Then, β value was calculated from the plot of S0/Sx vs. [A]. […] From the kd value of the solvent (kd of acetone=38,400 s^−1), β value of A was calculated. […]

[2] = 1H-NMR of drugs and model linker compound with CMP-OMe before and after irradiation; format: physicochemical; conditions: for Oxidation under the irradiation condition: 1H-NMR
From the text: The cleavage of aminoacrylate linkers after irradiation was supported by the increased coumarin fluorescence of 9 by irradiation (FIGS. 14-21). The unique peak of each compound was integrated against the peak of CMP-OMe (four protons of CMP-OMe at 9.7 ppm, FIG. 14), which was known to be inert to singlet oxygen oxidation. […] However, we observed 77% decrease of the proton peak of the aminoacrylate linker after the irradiation (FIG. 21). […] PD 9 had negligible coumarin emission compared to that of free coumarin at the equimolar concentration. In the presence of 10 μM of 9, MCF-7 cells were incubated for 24 h to activate dPS. Then, the samples were irradiated by visible light (540±10 nm, 8 mW/cm^2, 30 min). […] The released free coumarin was also detected and quantified by HPLC based on the standard curve of free coumarin. As such, almost 99% of 9 released coumarin while only 64% of dPS of 9 were activated when irradiated.

[3] = literature (ref 79); cited from earlier work
[4] = tested on: MCF-7 cells; assay: Dark toxicity, MTT cell viability (Example 4); format: cell-based; conditions: MCF-7, 96 hr, no irradiation
Description: MCF-7 cells (5,000 cells/well) were seeded in 96 well plates. After the plates were incubated for 24 hr, the culture medium was aspirated and the cells were washed with cold PBS (100 μL) once. Then, prodrug in the 200 μL culture media was added to cells. The final concentrations ranging from 1 nM to 1 μM were used to perform concentration dependent cell viability and 25 nM prodrug was used to perform time dependent drug release study. After 96 hr incubation, the cell viability was determined by MTT assay detailed below. The experiments were performed in triplicate. IC50 values were calculated with GraphPad Prism 5.
Cell viability was assessed by MIT assay.^89 In brief, after thoroughly washing the cells 2× with PBS buffer, the cells were treated with 200 μL 0.5 mg/mL MIT (3-(4,5-dimethylthiazol-2-yl)-2,5-diphenyltetrazolium bromide, a yellow tetrazole). Subsequently, the cells were incubated at 37° C. under a humidified atmosphere of 5% CO2 for 4 h. After 4 h of incubation, the solution from each well was taken out, and washed with PBS one time and added 100 μL DMSO. The plates were shaken at room temperature for 10 min and read immediately at 570 nm on a microplate reader (Spectra max, Molecular devices). Cell viability (%) was expressed as a ratio of treated cells to control cells.

[5] = tested on: colon 26 cells; assay: Antitumor efficacy study, s.c. colon 26 tumors; format: in vivo, BALB/c mice; conditions: similar dose, pilot studies
Description: The antitumor effects of the prodrugs after irradiation were evaluated by using a mouse tumor model: BALB/c mice having s.c. tumors produced by injection of colon 26 cells. After 1.5 h-post i.p. injection of prodrugs, each tumor was irradiated by 690 nm diode laser (360 J/cm^2=200 mW/cm^2 for 30 min) on days 0, 1 and 2. The treatment conditions were determined from pilot studies although those conditions might not have been the optimal conditions.
Four- to six-week-old BALB/c mice (18-20 g, Charles River Laboratories, Inc.) were used for the murine tumor model. The mice were implanted s.c. with 2×10^6 colon 26 cells in PBS (100 μL) on the lower back-neck region. Tumor growth was monitored with digital caliper. Two dimensions l and w (l: the longest axis of tumor and w: the axis perpendicular to l) were used to calculate tumor volume (lw^2/2). Mice with a tumor of the diameter 3-5 mm were used for the experiments.
Samples were filtered using 0.2 μm sterile syringe filter. To each mouse, 200 μL of sample was injected via i.p. once a day on day 0, 1, and 2. Then, 1 h 30 min later mice were anesthetized with ketamine 80 mgkg^−1 and xylazine 6 mgkg^−1, i.p. injection. Tumors were irradiated with a 690 nm diode laser at 200 mW/cm^2 for 30 min (360 J/cm^2). Tumor size was measured with the digital caliper every day after the treatment.

[6] = tested on: MCF-7 cells; assay: Dark toxicity, MTT (Example 5); format: cell-based; conditions: Homo sapiens, MCF7, 72 h; MCF-7, dark, 3 days; read-out: IC50D (dark toxicity)
Description: It seemed that the bulky groups, CMP-L and CMP-NCL, reduced the cytotoxic activity of CA4, presumably through the interference of its binding to tubulin as estimated by the modeling study.
MCF-7 cells were maintained in minimum essential medium (α-MEM) supplemented with 10% bovine growth serum, 2 mM L-glutamine, 50 units/mL penicillin G, 50 μg/mL streptomycin and 1.0 μg/mL fungizone. MCF-7 cells (5,000 cells/well) were seeded on 96-well plates in the medium and then incubated for 24 h at 37° C. in 5% CO2. Stock solutions (2 mM) were prepared in DMSO. The stocks were further diluted with medium to get necessary final concentrations. The diluted solution (10 μL) was then added to each well (190 μL). The plates were incubated for 24 h and then removed from the incubator. For the phototoxicity study: The plate without a cover was placed on an orbital shaker (Lab-line, Barnstead International) and irradiated by using a diode laser (690 nm, 5.6 mW/cm^2) for 30 min. To ensure uniformity of the light during the irradiation, each plate was shaken gently on an orbital shaker. For the dark toxicity study: Plates were kept in the dark for 30 min, and then returned to the incubator. Cell viability was determined after 3 days by using the MTT assay. Briefly, a 10 μL solution of MTT (10 mg in 1 mL PBS buffer) was added to each well and the plate was incubated for 4 h. Then, the MTT solution was removed and the cells were dissolved in 200 μL of DMSO and the absorbance within each well was measured at 570 nm with background subtraction at 650 nm. The cell viability was then quantified by measuring the absorbance of the treated wells compared to that of the untreated wells (controls) and expressed as a percentage.

[7] = target: T1, tubulin (Sus scrofa, UniProt P02554); assay: Fluorescence-based tubulin polymerization assay; format: biochemical
T1 construct: purchased Cytoskeleton, Inc. BK011P
T1 sequence (P02554 whole entry): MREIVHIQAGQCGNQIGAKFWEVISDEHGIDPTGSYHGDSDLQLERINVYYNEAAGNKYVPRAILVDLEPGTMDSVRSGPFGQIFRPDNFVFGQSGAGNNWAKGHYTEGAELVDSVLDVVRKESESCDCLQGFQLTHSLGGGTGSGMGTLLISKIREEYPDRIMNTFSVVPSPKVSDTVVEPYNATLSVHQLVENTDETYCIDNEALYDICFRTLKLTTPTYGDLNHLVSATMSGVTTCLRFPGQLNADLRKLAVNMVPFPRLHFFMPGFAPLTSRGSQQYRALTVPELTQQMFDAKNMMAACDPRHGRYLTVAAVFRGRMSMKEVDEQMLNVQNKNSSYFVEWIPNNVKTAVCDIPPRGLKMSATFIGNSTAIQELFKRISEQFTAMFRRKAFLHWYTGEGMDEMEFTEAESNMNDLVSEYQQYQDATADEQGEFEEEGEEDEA
T1 sequence (P02550 whole entry partner): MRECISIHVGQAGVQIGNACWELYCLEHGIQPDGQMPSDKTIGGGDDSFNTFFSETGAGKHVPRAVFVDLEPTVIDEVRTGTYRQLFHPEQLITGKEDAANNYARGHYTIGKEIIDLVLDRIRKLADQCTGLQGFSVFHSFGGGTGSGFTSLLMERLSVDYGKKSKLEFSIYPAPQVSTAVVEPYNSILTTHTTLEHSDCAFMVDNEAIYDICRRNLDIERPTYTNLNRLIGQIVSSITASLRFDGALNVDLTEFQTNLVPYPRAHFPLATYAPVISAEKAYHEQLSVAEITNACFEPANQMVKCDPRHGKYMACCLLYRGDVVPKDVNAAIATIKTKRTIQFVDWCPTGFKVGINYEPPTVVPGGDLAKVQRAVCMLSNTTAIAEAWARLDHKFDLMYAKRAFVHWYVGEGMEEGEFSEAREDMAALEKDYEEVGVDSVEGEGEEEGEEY
Description: Paclitaxel and CA4 were used as positive control drugs (a polymerization enhancer and an inhibitor, respectively) in addition to the negative control group (FIG. 32).
The fluorescence-based tubulin polymerization was determined by using a kit supplied by Cytoskeleton, Inc. (cat #=BK011P). Its basic principle is that the fluorescence reporter increases as it is incorporated into microtubules during the course of polymerization. The assay was performed following the experimental procedure as described in version 2.1 of the tubulin polymerization assay kit manual. Briefly, the test drug (final concentration=3 μM) was added to a mixture of tubulin and GTP in a buffer solution, and the reaction mixture was incubated at 37° C. Fluorescence was monitored (excitation=360 nm and emission=450 nm) by using a fluorescence plate reader (SpectraMax Gemini EM, Molecular device). Paclitaxel and CA4 were included in the assay as positive controls in addition to the negative control (vehicle only).

| SMILES | Second order rate constant (k = kr+kq) with singlet oxygen [1] [M⁻¹ s⁻¹] | Decrease of the proton peak after irradiation ([2]; CDCl3, 1H-NMR) [%] | Times more active than irinotecan [3] | IC50 [4] [nM] | Oxidation under the irradiation condition [2] | Significant tumor growth delay by CA4 itself [5] | IC50 [6] [nM] | IC50 ([4]; Homo sapiens, MCF7, light or radiation study) [nM] | Pattern of kinetic trace of tubulin polymerization ([7]; 3 μM) | inhibition at 3 µM ([7]; read-out: Inhibition of tubulin polymerization) [%] |
| --- | --- | --- | --- | --- | --- | --- | --- | --- | --- | --- |
| O=C(/C=C/N1CCCCC1)Nc1ccccc1 [Compound 9 (Example 3), (E)-N-Phenyl-3-(piperidin-1-yl)acrylamide] | 2.5e+07 | 77 |  |  |  |  |  |  |  |  |
| CCc1c2c(nc3ccc(O)cc13)-c1cc3c(c(=O)n1C2)COC(=O)[C@]3(O)CC [SN-38] |  |  | at least 1000 times | 170 | not oxidized at all |  |  |  |  |  |
| COc1ccc(/C=C\c2cc(OC)c(OC)c(OC)c2)cc1O [CA-4, Combretastatin A-4] |  |  |  |  | not oxidized at all | not seen | 9 | 8 | inhibitor | 100 |
